Test results taken from PubChem BioAssay (NCI).
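Cells were grown in 96-well plates and exposed to each compound for 48 hours at five concentrations; endpoints were interpolated linearly between bracketing concentrations, or set to the highest concentration if not reached. GI50 marks 50% less growth. TGI: total growth inhibition.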

Legend:
Test in all cases: NCI anticancer screen, dose series, 48 h
[1] = test system: RPMI-8226 leukemia
[2] = test system: A549 NSCLC
[3] = test system: OVCAR-4 ovarian
[4] = test system: SK-MEL-2 melanoma
[5] = test system: HL-60(TB) leukemia
[6] = test system: SNB-19 CNS
[7] = test system: UACC-257 melanoma
[8] = test system: COLO 205 colon
[9] = test system: IGROV1 ovarian
[10] = test system: HCT-116 colon

Compound	GI50 [1]	TGI [1]	GI50 [2]	TGI [2]	GI50 [3] [µM]	TGI [3] [µM]	GI50 [4]	TGI [4]	GI50 [5]	GI50 [6]	TGI [6]	GI50 [7]	TGI [7]	GI50 [8]	TGI [8]	TGI [9]	TGI [10]	TGI [5]	GI50 [9]	GI50 [10]
COc1cc(/C=C/C(=O)N2CCN(C(=O)c3cc(OC)c(OC)c(OC)c3)CC2)ccc1OCCCOc1cc2c(cc1OC)C(=O)N1CCC[C@H]1C=N2	0.431 µM	> 100 µM	0.953 µM	9.26 µM	1.53	27.5	0.26 µM	0.703 µM	0.214 µM	0.362 µM	> 40.3 µM	0.313 µM	2.04 µM	0.19 µM	0.476 µM					
Nc1cc(=O)n(-c2ccccc2)c(=S)n1-c1ccccc1		> 100 µM		> 100 µM				> 100 µM			> 100 µM		> 100 µM		> 100 µM	> 100 µM	> 100 µM			
c1ccc2c(c1)N=C(c1cccc3ccccc13)CC(c1ccc3c(c1)OCO3)S2 (centres undefined)				> 100 µM		> 100		> 100 µM			> 100 µM		> 100 µM		> 100 µM	> 100 µM	> 100 µM	> 100 µM		
Cc1cc(C)nc(NS(=O)(=O)c2ccc(Nc3c4ccc(Cl)cc4nc4c(C(=O)NCCN(C)C)cccc34)cc2)n1		> 100 µM		> 100 µM		> 100					> 100 µM		> 100 µM		> 100 µM	> 100 µM	> 100 µM	> 100 µM		
CCNC(=O)O/N=C1\CCC2[C@@H]3CC=C4C[C@@H](OC5CCCCO5)CC[C@]4(C)C3CC[C@]12C (some centres undefined)		4.8 µM		64.2 µM				5.68 µM			9.94 µM		4.41 µM			> 100 µM	> 100 µM			
CC(C)(C)CC(N)=O				> 100 µM		> 100		> 100 µM			> 100 µM		> 100 µM		> 100 µM	> 100 µM	> 100 µM	> 100 µM		
COc1ccccc1NC(=O)c1nc2ccc([N+](=O)[O-])cc2nc1C		> 100 µM		> 100 µM		> 100		> 100 µM			> 100 µM		> 100 µM		> 100 µM	> 100 µM	> 100 µM			
O=C(/C(=C\c1ccc(Cl)cc1)c1ccccc1)c1ccccc1		> 100 µM				> 100		75 µM					> 100 µM		> 100 µM	> 100 µM	> 100 µM	36.3 µM		
O=C(COC(=O)c1cccc2c(=O)c3ccccc3[nH]c12)Nc1ccc(C(=O)O)cc1				> 100 µM		> 100					> 100 µM		> 100 µM		> 100 µM	> 100 µM	> 100 µM	> 100 µM		
CC(=O)c1cc(C(=O)c2ccc3c(c2)Sc2ccccc2N3)c2cc(C)ccn12	0.233 µM	> 100 µM	0.0648 µM	> 100 µM	1.29	> 100	81.4 µM	> 100 µM		0.183 µM	> 100 µM			0.0598 µM	0.346 µM	> 100 µM	> 100 µM		0.122 µM	0.0414 µM
CC1(C)[C@@H](OC(=O)CCC(=O)O)CC[C@]2(C)[C@H]3C(=O)C=C4[C@@H]5C[C@@](C)(C(=O)O)CC[C@]5(C)CC[C@@]4(C)[C@]3(C)CC[C@@H]12	50.9 µM	69.9 µM	61 µM	130 µM	64.6	168	52.1 µM	67.9 µM	54.6 µM	55 µM	141 µM	66.2 µM	91.4 µM			100 µM	75.6 µM	73.6 µM	55.8 µM	51.8 µM
NCCNCc1c2ccccc2c(CNCCN)c2ccccc12				38.7 µM				29.1 µM					35.5 µM		> 100 µM	> 100 µM	48.3 µM	58.6 µM		
Cc1cc(C(C)(C)C)cc(CNC2CCCCC2)c1O		45.5 µM		33.8 µM		51.5		34 µM			31.9 µM		28.4 µM		31.5 µM	26.9 µM	28.8 µM			
NCC1OC(OC2C(CO)OC(OC3C(O)C(N)CC(N)C3OC3OC(CO)C(O)CC3N)C2O)C(N)C(O)C1OC1OC(CO)C(O)C(O)C1O (centres undefined)	> 50 µg/mL	> 50 µg/mL	> 50 µg/mL	> 50 µg/mL			> 50 µg/mL	> 50 µg/mL	> 50 µg/mL	> 50 µg/mL	> 50 µg/mL	> 50 µg/mL	> 50 µg/mL	> 50 µg/mL	> 50 µg/mL	> 50 µg/mL	> 50 µg/mL	> 50 µg/mL	> 50 µg/mL	> 50 µg/mL
CCN1Cc2nc3sc(C)c(C)c3c(=O)n2C=C1C	2.64 µM	10.9 µM	38.5 µM	> 100 µM	11.8	> 100	21.1 µM	> 100 µM	2.1 µM	17.9 µM	> 100 µM	4.56 µM	17.6 µM	24.4 µM	> 100 µM		4.17 µM	6.48 µM		1.72 µM
CC1=CC(N2C(=O)C(C)=CC2O)NC1=O (centres undefined)				> 100 µM		> 100		> 100 µM			> 100 µM		> 100 µM		> 100 µM		> 100 µM	> 100 µM		
COc1cc([N+](=O)[O-])c(OC)cc1-c1nc2sc(Cl)cn2c1/C=N/NC1=NCCN1							22.9 µM	> 100 µM				2.23 µM	4.43 µM	1.33 µM	3.7 µM		0.616 µM			0.249 µM
CC1OC(OC2C(OC3CCC4(C)C(CCC5(C)C4CC=C4C6CC(C)(C)CCC6(C(=O)O)CCC45C)C3(C)CO)OCC(O)C2O)C(O)C(O)C1O (centres undefined)				38.2 µM		30.5		33.3 µM			32.3 µM		41.2 µM		44.4 µM	32.9 µM	> 100 µM			

Compound	GI50 [1]	TGI [1]	GI50 [2]	TGI [2]	GI50 [3] [µM]	TGI [3] [µM]	GI50 [4]	TGI [4]	GI50 [5]	GI50 [6]	TGI [6]	GI50 [7]	TGI [7]	GI50 [8]	TGI [8]	TGI [9]	TGI [10]	TGI [5]	GI50 [9]	GI50 [10]
Cc1ccc2c(c1)S(=O)(=O)c1ccc3ccccc3c1N2				> 100 µM		> 100		> 100 µM			> 100 µM		> 100 µM		> 100 µM	> 100 µM	> 100 µM	> 100 µM		
c1ccc2cc(C[n+]3ccn(CCCCCCCCCCn4cc[n+](Cc5ccc6ccccc6c5)c4)c3)ccc2c1	0.737 µM	4.17 µM			0.988	9.88	1.72 µM	5.2 µM	1.25 µM			1.37 µM	5.58 µM	0.411 µM	1.68 µM	3.08 µM	15.1 µM	2.97 µM	1.11 µM	1.55 µM
CC1(c2ccccc2)CC(c2cccc([N+](=O)[O-])c2)=NO1 (centres undefined)		> 100 µM		> 100 µM		> 100		> 100 µM					> 100 µM		> 100 µM	> 100 µM	> 100 µM			
Cc1ccc(S(=O)OCC23CC4CC(CC(C4)C2)C3)cc1 (centres undefined)		> 100 µM		> 100 µM		> 100					> 100 µM		> 100 µM		> 100 µM	> 100 µM	> 100 µM	> 100 µM		
Cn1c(NCC(O)CN2CCCC2)cc(=O)n(C)c1=O (centres undefined)	> 100 µM	> 100 µM	> 100 µM	> 100 µM	> 100	> 100	> 100 µM	> 100 µM		> 100 µM	> 100 µM	> 100 µM	> 100 µM	> 100 µM	> 100 µM	> 100 µM	> 100 µM		> 100 µM	> 100 µM
O=C1CCSC2=C1SCc1sccc12		> 100 µM		> 100 µM		> 100		> 100 µM			> 100 µM		> 100 µM		> 100 µM	> 100 µM		> 100 µM		
COc1ccc(-n2ccnc2-c2cc(OC)c(OC)c(OC)c2)cc1	3.78 µM	30.7 µM	6.57 µM	> 100 µM	11.3	85.7	7.27 µM	> 100 µM		4.64 µM	> 100 µM	6.64 µM	> 100 µM	1.33 µM	5.74 µM	> 100 µM	> 100 µM		2.42 µM	3.9 µM
COc1ccc(C(=O)C(c2ccc(OCc3ccccc3)cc2)c2ccc(OCc3ccccc3)cc2)cc1		> 100 µM		> 100 µM		> 100		> 100 µM			> 100 µM				> 100 µM	> 100 µM	> 100 µM	> 100 µM		
COc1ccc(C2=NN(C(=O)c3cc(OC)c(OC)c(OC)c3)C(c3ccc(N(C)C)cc3)C2)cc1 (centres undefined)	0.663 µM	> 20 µM	1.12 µM	> 100 µM	0.548	> 100	83.5 µM	> 100 µM	0.499 µM	1.84 µM	> 100 µM	97.6 µM	> 100 µM			> 100 µM		2.87 µM	0.739 µM	0.439 µM
O=C(Nc1ccccc1)c1cc(S(=O)(=O)Nc2nc3ccccc3o2)c(SCc2ccccc2)cc1Cl	15.4 µM	46.8 µM	21 µM	53.8 µM	33.8	> 100	23.6 µM	57.3 µM		37 µM	> 100 µM	19.6 µM	38.6 µM	36.7 µM	> 100 µM	36.7 µM	66.1 µM		17.9 µM	25.1 µM
O=C(c1ccco1)c1c(C(F)(F)F)n([O-])c2ccc(Cl)cc2[n+]1=O			0.615 µM	2.44 µM	1.55	5.73	1.76 µM	9.78 µM	0.346 µM	1.58 µM	5.67 µM	1.31 µM	3.08 µM	1.39 µM	12.8 µM		2.84 µM	6.33 µM	0.404 µM	0.0595 µM
NNC(=O)N/N=C1\C(=O)N(c2ccc(Cl)c(Cl)c2)C(=O)C(=O)C1c1nc2ccccc2s1 (centres undefined)				> 100 µM		> 100		> 100 µM			> 100 µM		> 100 µM		> 100 µM	> 100 µM	> 100 µM	> 100 µM		
OCc1ccc(N2CCc3ccccc3C2)cc1Cl	0.617 µM	87.9 µM	0.0604 µM	7.59 µM	< 0.0149	0.0633			17.9 µM	31 µM	> 100 µM			0.0136 µM	0.0619 µM	< 0.0281 µM	14.1 µM	61.4 µM	< 0.0155 µM	< 0.01 µM
CC(=O)[CH-]C(=O)c1ccccc1.CC(=O)[CH-]C(=O)c1ccccc1.C[C@]12CCC(=O)C=C1CC[C@@H]1C2CC[C@@]2(C)C1CC[C@@H]2[O-].C[C@]12CCC(=O)C=C1CC[C@@H]1C2CC[C@@]2(C)C1CC[C@@H]2[O-].Cl.[Ti+4] (some centres undefined)	18.8 µM	> 100 µM	18.4 µM	43.9 µM	23.4	> 100	12.7 µM	31.4 µM	8.82 µM			19.3 µM	69.7 µM	37 µM	> 100 µM	46.4 µM	> 100 µM	69.1 µM	21.8 µM	27.6 µM
COc1ccc(C2C=C(c3ccc4c(c3)OCO4)Oc3c2c(=O)oc2ccccc32)cc1OC (centres undefined)		5.29 µM		> 100 µM		> 100					> 100 µM				> 100 µM	> 100 µM	> 100 µM	0.6 µM		
O=S(=O)(/N=c1/scc(-c2ccccc2)n1-c1ccccc1)c1ccc(N2N=C3c4ccccc4CC3C2c2cccs2)cc1 (centres undefined)	51 µM	> 100 µM	57 µM	> 100 µM	> 100	> 100	> 100 µM	> 100 µM		> 100 µM	> 100 µM	> 100 µM	> 100 µM	> 100 µM	> 100 µM					
Clc1ccc(-c2c(C3=NCCCN3)nnn2-c2ccccc2)cc1				> 100 µM		> 100		> 100 µM			> 100 µM		> 100 µM		> 100 µM	> 100 µM	> 100 µM	36.6 µM		
